The supplement of paper PMC12463676, “Small-molecule dissolution of stress granules by redox modulation benefits ALS models” (Nature Chemical Biology, 2025)

Experiments:
lipoamide = compound: NC(=O)CCCCC1CCSS1 [lipoamide]; test: thermal stability z-score vs DMSO; higher = more thermally stabilized by treatment; conditions: HeLa, lipoamide concentration 100 µM
Experimental: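 Cellular thermal proteome profiling in HeLa cells. Cells were treated with 100 µM lipoamide for 1 h, with or without 1 mM arsenate for a further 1 h, then heated to ten temperatures (37-66.3 °C), and soluble protein was quantified by TMT mass spectrometry relative to 0.1% DMSO controls. The thermal stability score (sum of log2 fold changes minus the abundance score) was transformed to a z-score; mean of n = 3 experiments.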

potassium arsenate = compound: O=[As]([O-])(O)O.[K+] [potassium arsenate]; test: as above; conditions: HeLa; arsenate concentration 1 mM
Experimental: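 Cellular thermal proteome profiling in HeLa cells treated with 1 mM arsenate for 1 h (DMSO pretreatment), heated to ten temperatures (37-66.3 °C). Soluble protein was quantified by TMT mass spectrometry relative to DMSO controls; the thermal stability score was transformed to a z-score; mean of n = 3 experiments.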

[1] = arsenate co-treatment: 1 mM arsenate 1 h
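Further: each temperature applied for 3 min, abundance score taken as mean log2 fold change at the two lowest temperatures, z-score obtained by mean subtraction and division by SD.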

UniProt Q9H3S7, sequence (Q9H3S7 whole entry): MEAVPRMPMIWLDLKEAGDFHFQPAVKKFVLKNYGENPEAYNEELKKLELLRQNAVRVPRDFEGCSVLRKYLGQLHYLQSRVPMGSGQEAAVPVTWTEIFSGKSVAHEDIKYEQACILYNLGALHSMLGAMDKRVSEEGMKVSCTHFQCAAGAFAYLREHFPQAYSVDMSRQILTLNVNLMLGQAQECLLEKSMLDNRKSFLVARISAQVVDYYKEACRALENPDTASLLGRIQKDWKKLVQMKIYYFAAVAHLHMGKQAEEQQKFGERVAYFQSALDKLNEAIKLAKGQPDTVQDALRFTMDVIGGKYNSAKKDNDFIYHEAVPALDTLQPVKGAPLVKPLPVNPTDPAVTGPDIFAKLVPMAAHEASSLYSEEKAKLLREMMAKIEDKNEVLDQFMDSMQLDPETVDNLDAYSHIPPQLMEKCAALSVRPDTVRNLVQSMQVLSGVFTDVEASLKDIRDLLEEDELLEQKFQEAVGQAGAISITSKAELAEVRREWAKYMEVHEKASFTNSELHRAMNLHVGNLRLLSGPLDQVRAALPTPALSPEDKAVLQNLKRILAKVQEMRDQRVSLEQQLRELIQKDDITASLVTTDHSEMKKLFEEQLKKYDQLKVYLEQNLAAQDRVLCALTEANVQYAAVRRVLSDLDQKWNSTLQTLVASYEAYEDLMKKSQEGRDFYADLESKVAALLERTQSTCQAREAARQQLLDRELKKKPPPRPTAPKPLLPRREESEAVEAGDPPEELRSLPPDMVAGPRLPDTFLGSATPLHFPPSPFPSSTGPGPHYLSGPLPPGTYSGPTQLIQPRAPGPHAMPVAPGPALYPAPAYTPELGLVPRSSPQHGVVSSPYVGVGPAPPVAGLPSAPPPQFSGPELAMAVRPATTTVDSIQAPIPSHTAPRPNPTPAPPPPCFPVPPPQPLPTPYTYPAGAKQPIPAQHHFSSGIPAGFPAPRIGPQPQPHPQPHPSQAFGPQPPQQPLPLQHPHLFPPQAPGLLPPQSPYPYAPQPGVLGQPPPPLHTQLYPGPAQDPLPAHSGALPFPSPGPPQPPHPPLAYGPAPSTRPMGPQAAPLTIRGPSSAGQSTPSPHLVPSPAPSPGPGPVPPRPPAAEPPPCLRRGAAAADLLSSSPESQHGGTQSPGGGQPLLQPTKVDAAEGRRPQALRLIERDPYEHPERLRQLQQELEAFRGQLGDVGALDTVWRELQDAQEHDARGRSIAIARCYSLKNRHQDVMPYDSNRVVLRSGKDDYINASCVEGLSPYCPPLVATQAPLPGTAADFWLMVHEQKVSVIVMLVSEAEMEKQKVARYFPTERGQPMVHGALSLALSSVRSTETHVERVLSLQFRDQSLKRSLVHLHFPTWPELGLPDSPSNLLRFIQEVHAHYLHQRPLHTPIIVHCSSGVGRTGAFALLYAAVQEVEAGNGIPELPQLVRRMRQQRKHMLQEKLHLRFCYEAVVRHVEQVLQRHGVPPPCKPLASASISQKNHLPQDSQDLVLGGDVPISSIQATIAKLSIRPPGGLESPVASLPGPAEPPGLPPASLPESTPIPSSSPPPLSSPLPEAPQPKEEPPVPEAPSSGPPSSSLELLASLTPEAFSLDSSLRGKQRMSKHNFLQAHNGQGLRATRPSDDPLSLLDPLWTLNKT
UniProt P29350, sequence (P29350 whole entry): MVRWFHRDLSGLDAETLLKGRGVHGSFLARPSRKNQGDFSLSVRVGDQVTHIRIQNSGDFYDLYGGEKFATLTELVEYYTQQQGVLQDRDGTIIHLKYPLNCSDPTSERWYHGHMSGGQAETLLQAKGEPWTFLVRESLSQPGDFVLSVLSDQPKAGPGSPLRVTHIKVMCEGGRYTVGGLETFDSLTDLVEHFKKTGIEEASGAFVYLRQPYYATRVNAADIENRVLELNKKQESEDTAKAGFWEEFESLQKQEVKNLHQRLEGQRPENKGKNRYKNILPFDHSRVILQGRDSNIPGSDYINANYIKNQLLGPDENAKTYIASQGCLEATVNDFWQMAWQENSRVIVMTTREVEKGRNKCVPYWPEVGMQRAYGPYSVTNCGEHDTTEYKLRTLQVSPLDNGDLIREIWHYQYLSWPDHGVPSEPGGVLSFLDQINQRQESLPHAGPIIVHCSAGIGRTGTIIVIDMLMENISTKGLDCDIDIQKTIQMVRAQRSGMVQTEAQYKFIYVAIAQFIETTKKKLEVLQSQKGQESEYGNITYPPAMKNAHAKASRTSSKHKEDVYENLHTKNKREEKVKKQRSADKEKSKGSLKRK
UniProt P20962, sequence (P20962 whole entry): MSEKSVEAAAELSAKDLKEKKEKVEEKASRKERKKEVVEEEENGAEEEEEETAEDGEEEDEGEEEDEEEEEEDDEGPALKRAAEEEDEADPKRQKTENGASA
UniProt Q12913, sequence (Q12913 whole entry): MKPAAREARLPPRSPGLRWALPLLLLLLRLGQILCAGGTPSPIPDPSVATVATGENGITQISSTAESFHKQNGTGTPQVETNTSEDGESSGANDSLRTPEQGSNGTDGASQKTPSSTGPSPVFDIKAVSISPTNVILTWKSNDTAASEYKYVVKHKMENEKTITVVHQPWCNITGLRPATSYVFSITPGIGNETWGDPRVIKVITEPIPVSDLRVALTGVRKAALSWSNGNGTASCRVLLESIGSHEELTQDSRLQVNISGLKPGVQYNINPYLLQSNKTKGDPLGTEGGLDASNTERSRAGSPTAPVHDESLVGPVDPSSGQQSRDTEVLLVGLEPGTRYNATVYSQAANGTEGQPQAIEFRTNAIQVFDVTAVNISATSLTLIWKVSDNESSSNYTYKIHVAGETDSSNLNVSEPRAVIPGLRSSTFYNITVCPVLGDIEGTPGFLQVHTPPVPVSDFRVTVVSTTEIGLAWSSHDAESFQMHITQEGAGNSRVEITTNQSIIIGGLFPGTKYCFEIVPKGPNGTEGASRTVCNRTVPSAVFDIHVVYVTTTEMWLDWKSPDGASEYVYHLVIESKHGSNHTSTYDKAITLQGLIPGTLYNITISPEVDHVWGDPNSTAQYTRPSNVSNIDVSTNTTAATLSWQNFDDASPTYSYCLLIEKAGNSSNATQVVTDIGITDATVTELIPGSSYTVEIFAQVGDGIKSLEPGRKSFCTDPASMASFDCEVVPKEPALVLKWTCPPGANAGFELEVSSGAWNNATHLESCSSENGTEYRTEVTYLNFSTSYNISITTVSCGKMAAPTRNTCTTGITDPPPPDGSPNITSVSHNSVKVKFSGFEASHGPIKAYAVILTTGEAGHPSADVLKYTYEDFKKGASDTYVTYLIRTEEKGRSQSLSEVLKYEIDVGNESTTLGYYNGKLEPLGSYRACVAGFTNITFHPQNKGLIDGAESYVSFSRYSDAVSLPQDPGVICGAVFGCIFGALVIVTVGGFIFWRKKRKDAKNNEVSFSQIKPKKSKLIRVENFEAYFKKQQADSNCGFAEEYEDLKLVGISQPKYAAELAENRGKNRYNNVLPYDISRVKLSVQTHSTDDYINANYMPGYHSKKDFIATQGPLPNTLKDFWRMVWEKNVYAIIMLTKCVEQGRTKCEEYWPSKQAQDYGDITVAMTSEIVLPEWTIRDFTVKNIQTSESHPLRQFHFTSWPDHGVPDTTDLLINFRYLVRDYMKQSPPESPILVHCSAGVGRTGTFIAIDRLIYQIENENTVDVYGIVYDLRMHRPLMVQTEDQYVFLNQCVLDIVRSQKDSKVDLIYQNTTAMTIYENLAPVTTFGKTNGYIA
UniProt P26045, sequence (P26045 whole entry): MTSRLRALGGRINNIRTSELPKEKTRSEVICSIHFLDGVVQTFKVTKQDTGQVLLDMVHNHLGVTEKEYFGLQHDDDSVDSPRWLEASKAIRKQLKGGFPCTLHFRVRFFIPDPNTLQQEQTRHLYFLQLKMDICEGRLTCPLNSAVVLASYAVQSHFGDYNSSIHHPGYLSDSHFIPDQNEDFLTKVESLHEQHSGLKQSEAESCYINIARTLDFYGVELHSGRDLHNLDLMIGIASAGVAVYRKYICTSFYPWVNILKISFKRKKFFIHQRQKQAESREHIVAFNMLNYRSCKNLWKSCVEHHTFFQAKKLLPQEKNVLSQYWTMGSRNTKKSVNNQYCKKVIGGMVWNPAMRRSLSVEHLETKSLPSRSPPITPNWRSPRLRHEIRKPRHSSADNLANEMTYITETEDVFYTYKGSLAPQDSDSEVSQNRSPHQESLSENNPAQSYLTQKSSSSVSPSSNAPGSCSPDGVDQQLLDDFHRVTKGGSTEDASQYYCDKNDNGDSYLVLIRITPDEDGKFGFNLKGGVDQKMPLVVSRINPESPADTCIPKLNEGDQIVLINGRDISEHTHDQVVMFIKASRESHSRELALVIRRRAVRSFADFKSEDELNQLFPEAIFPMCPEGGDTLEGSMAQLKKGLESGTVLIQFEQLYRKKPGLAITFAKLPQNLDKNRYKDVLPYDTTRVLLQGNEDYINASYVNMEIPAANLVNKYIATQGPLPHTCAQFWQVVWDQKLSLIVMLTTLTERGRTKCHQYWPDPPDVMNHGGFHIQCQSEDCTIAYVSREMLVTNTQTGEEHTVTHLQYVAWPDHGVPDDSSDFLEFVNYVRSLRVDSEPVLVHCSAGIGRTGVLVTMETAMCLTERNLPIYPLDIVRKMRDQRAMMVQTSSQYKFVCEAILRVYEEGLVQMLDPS
UniProt P17706, sequence (P17706 whole entry): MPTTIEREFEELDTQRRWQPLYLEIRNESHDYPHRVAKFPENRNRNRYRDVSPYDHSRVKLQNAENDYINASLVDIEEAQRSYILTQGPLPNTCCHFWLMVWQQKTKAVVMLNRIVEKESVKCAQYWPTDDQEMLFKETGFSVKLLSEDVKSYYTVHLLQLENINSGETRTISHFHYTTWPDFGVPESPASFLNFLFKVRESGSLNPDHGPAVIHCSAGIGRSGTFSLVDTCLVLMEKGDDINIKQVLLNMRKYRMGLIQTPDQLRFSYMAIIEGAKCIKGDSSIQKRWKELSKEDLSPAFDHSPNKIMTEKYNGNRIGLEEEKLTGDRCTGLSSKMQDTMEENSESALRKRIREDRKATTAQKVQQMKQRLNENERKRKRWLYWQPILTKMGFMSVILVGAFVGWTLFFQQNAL

Row | Target | thermal stability z-score (lipoamide; [1]) | thermal stability z-score (lipoamide; arsenate co-treatment: none) | thermal stability z-score (potassium arsenate)
1 | PTMS (UniProt P20962) | 0.606 | 0.808 | -0.629
2 | PTP4A1 (UniProt Q93096) | 1.33 | 1.25 | 0.626
3 | PTP4A2 (UniProt Q12974) | 1.78 | 1.15 | 0.861
4 | PTPMT1 (UniProt Q8WUK0) | 0.619 | 0.326 | 0.767
5 | PTPN1 (UniProt P18031) | -1.02 | -0.578 | 0.228
6 | PTPN2 (UniProt P17706) | 0.0491 | 0.308 | 0.95
7 | PTPN3 (UniProt P26045) | -0.085 | -0.294 | -0.31
8 | PTPN6 (UniProt P29350) | -0.0229 | 0.0958 | -0.0221
9 | PTPN9 (UniProt P43378) | -0.0496 | 0.0634 | 0.0393
10 | PTPN11 (UniProt Q06124) | 0.431 | 0.267 | -0.559
11 | PTPN12 (UniProt Q05209) | -0.407 | -0.595 | -0.087
12 | PTPN23 (UniProt Q9H3S7) | -0.214 | -0.0347 | 0.691
13 | PTPRF (UniProt P10586) | -0.381 | -0.381 | -0.656
14 | PTPRJ (UniProt Q12913) | 1.03 | -0.0729 | -0.764
15 | PTPRK (UniProt Q15262) | -1.17 | -0.25 | 0.129
16 | PTPRM (UniProt P28827) | 0.782 | 1.16 | 0.672
17 | PTPRS (UniProt Q13332) | -0.214 | -0.198 | -0.0489
18 | PTRF (UniProt Q6NZI2) | 0.213 | 0.0879 | 0.778
